Experimental data as given in US20240252486A1, “ALGOSTATIC AGENTS FOR PREVENTING TRANSITION FROM ACUTE TO CHRONIC PAIN” (The Regents of the University of California, priority 2021, published 2024).
“Also recorded” adds a separate entry of the source.

Assays:
formalin-injected mice [1] = assay: Formalin-induced chronic pain-like state (CPLS): persistent hypersensitivity to heat and mechanical stimuli; format: in vivo, mouse; settings: for conversion to CPLS (contralateral hyperalgesia, PFD14): maximally effective dosages on PFD2-4: gabapentin 50 mg-kg^−1 IP, morphine 10 mg-kg^−1 subcutaneous, ketamine 4 mg-kg^−1 IP, ketoprofen 100 mg-kg^−1 IP, WT mice, formalin; for alleviation of the hypersensitive state (contralateral hyperalgesia): mouse, in vivo; for pain chronification (contralateral hyperalgesia): GW7647 10 mg-kg^−1 IP, post-procedural day 2-4
mice and rats = settings: cited from earlier work; for sensory abnormalities caused by carrageenan injection, ultraviolet B-radiation or CCI: mice and rats
PPAR-α = target: T1, PPAR-α (Homo sapiens, UniProt Q07869); settings: activation of PPAR-α by exogenous PEA; cited from earlier work
T1 sequence (Q07869 1-468): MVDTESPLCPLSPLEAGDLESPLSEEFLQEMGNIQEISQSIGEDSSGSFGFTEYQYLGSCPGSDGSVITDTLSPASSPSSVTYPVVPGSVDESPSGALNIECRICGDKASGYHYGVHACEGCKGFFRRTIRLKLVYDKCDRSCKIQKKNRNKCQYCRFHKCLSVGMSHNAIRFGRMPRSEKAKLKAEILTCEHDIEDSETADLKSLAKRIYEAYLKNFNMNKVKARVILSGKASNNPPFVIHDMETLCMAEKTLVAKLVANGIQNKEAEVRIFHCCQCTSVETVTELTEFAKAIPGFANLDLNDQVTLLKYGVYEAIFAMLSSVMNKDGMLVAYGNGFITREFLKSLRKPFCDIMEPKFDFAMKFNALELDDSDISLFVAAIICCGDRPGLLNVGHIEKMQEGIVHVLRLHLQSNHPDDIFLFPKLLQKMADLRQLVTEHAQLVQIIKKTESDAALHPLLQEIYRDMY

[2] = tested on: spinal-cord transcription; assay: RNA sequencing and metabolomic analysis of L4-L6 spinal cord; format: in vivo, mouse; settings: GW7647, post-injury
Procedure: RNA sequencing and bioinformatics analysis: We extracted total RNA with the RNeasy Mini Kit (Qiagen). Samples with RNA integrity number ≥8.5 were kept for library construction. cDNA synthesis, amplification, library construction, and sequencing were performed at Novogene (Bejing, China) using the Illumina NovaSeq platform with paired-end 150 bp (PE 150) sequencing strategy. Downstream analysis was performed using a combination of programs including STAR, HTseq, Cufflink and Novogene's wrapped scripts. Alignments were parsed using the STAR program and differential expressions were determined using DESeq2/edgeR. Gene Ontology (GO) and Kyoto Encyclopedia of Genes and Genomes (KEGG) enrichment were implemented using the ClusterProfiler.
Metabolomic analysis: Metabolomics analyses were performed at the West Coast Metabolomics Center of the University of California Davis, as described^55. Briefly, frozen lumbar spinal cord (L4-L6) fragments (˜5 mg) were homogenized in Eppendorf tubes (2 ml) for 2 min using metal spheres ([…] diameter) in a MM300 mill (Retsch, Germany). A mixture of isopropanol/acetonitrile/water (3/3/2, vol) was added to the grounded tissue (1 ml per 20 mg), stirred for 10 s and shaken at 4° C. for 5 min. […]

activated leukocytes = settings: topical application; cited from earlier work
[3] = tested on: male rat model of type-1 diabetes; settings: cited from earlier work
macrophages = settings: cited from earlier work
rodents = settings: male (but not female) rodents; cited from earlier work
naïve mice = assay: Capsaicin-evoked nocifensive behavior; format: in vivo, mouse
Procedure: Capsaicin: Capsaicin or its vehicle was injected into the plantar surface of the left hind paw (20 μl) or left forepaw (10 μl), i.e. contralaterally to the formalin injection site. Nocifensive behavior was videorecorded for 10 min and evaluated under blinded conditions.

formalin-injected mice [4] = assay: Formalin-induced paw edema; format: in vivo, mouse; settings: pretreatment; ARN16186 10 mg-kg^−1 IP, ARN19702 30 mg-kg^−1 IP; wild-type mice, 1% formalin
Procedure: Paw edema was measured with a digital caliper (Fisher Scientific, USA) and is expressed as the difference (A paw thickness, mm) between ipsilateral and contralateral paws.

formalin-injected mice [5] = assay: Formalin test: acute nocifensive behavior; settings: pretreatment; ARN16186 10 mg-kg^−1 IP, ARN19702 30 mg-kg^−1 IP; wild-type mice, 1% formalin
naïve animals = assay: Baseline nociceptive thresholds in naïve animals; format: in vivo, mouse; settings: ARN19702 30 mg-kg^−1 IP, ARN16186 10 mg-kg^−1 IP
[6] = tested on: PEA levels in diseased tissues of CCI and tumor-bearing mice; settings: cited from earlier work
[7] = in vivo; cited from earlier work
[8] = tested on: DRG neurons co-cultured with fibrosarcoma cells; settings: cited from earlier work
[9] = tested on: fibrosarcoma-bearing mice; settings: cited from earlier work

## CC(C(=O)O)c1cccc(C(=O)c2ccccc2)c1 (centres unmarked) [ketoprofen]
formalin-injected mice [1]
  conversion to CPLS (contralateral hyperalgesia, PFD14): not mimicked; also recorded: failed to stop; also recorded: do not prevent; also recorded: fail to prevent

## CNC1(c2ccccc2Cl)CCCCC1=O (centres unmarked) [ketamine]
formalin-injected mice [1]
  conversion to CPLS (contralateral hyperalgesia, PFD14): not mimicked; also recorded: failed to stop; also recorded: do not prevent; also recorded: fail to prevent

## CCCCCCCCCCCCCCCC(=O)NCCO [PEA, palmitoylethanolamide]
Mice and rats
  sensory abnormalities caused by carrageenan injection, ultraviolet B-radiation or CCI: mimicked
formalin-injected mice [1]; on PFD2-4, PEA 30 mg-kg^−1 subcutaneous, fenofibrate 100 mg-kg^−1 IP
  CPLS: blocked
PPAR-α
  inflammation: attenuates
  mitochondrial respiration: stimulates
  pain: attenuates

## CN1CC[C@]23c4c5ccc(O)c4O[C@H]2[C@@H](O)C=C[C@H]3[C@H]1C5 [morphine]
formalin-injected mice [1]
  alleviation of the hypersensitive state (contralateral hyperalgesia): only temporarily alleviated

## CC(C)(Sc1ccc(CCN(CCCCC2CCCCC2)C(=O)NC2CCCCC2)cc1)C(=O)O [GW7647]
formalin-injected mice [1]; NAAA-overexpressing mice treated with 0.1% formalin
  pain chronification (contralateral hyperalgesia): stopped
formalin-injected mice [1]; wild-type mice treated with 1% formalin
  pain chronification (contralateral hyperalgesia): stopped
[2]
  injury-associated changes in spinal-cord transcription: prevented

## O=C(CCc1ccccc1)N[C@H]1COC1=O [(S)-OOPP]
Activated leukocytes
  PEA levels in activated leukocytes: reinstates normal
  inflammatory responses induced by carrageenan or endotoxin: blunts

## CCC(=O)NC[C@H](Cc1ccc(OCCc2nc(-c3ccccc3)oc2C)cc1)N/C(C)=C\C(=O)c1ccc(C(F)(F)F)cc1 [GW6471]
Mice and rats; rats
  effects of ARN077 on sensory abnormalities in the presence of the PPAR-α antagonist: prevented
formalin-injected mice [1]; wild-type animals pretreated with GW6471 4 mg-kg^−1 IP, 15 min prior to ARN19702
  loss of the ARN19702 effect on transition to CPLS: replicated

## CN(C)C(=N)N=C(N)N [metformin]
[3]
  therapeutic efficacy in painful peripheral neuropathy: may exhibit therapeutic efficacy
macrophages
  macrophage phenotype shift toward glycolysis / trained immunity: stopped
rodents
  neuropathic pain: prevents

## COc1cc(CNC(=O)CCCC/C=C/C(C)C)ccc1O [capsaicin]
naïve mice; forepaw CPS injection, formalin-naïve mice
  median effective dose (ED50), nocifensive response: ~0.1 µg
naïve mice; intraplantar hind paw injection
  half-maximal dose, nocifensive response: 0.1 µg

## CCCCc1ccc(OC2C[C@H]3CC[C@@H](C2)N3S(=O)(=O)c2c(C)n[nH]c2C)cc1 (some centres unmarked) [ARN16186]
formalin-injected mice [4]
  paw edema (PFD14): prevents
formalin-injected mice [5]
  nocifensive response to formalin: prevents
naïve animals
  baseline nociceptive thresholds: Neither compound affected
formalin-injected mice [1]; ARN16186 10 mg-kg^−1 IP once daily PFD1 to PFD3, male mice
  protective effects of ARN19702 against CPLS (contralateral hyperalgesia): mimicked
formalin-injected mice [1]; pretreatment of wild-type mice, ARN19702 30 mg-kg^−1 IP, ARN16186 10 mg-kg^−1 IP
  NAAA-null phenotype (weakened nocifensive response, no inflammation or persistent hypersensitivity after formalin): recapitulated
formalin-injected mice [1]; pretreatment, ARN16186 10 mg-kg^−1 IP, ARN19702 30 mg-kg^−1 IP, wild-type mice, 1% formalin
  persistent contralateral hyperalgesia (PFD14): prevents

## NC(=O)c1cccc(-c2cccc(OC(=O)NC3CCCCC3)c2)c1 [URB597]
formalin-injected mice [1]; URB597 3 mg-kg^−1 IP once daily from PFD3 to PFD5, male mice
  emergence of formalin-induced CPLS (contralateral hyperalgesia and allodynia): prevents the emergence

## C[C@@H]1OC(=O)[C@@H]1NC(=O)OCCCCCc1ccccc1 [ARN077]
[6]
  PEA levels in diseased tissues: restores baseline
[7]
  crossing of the blood-brain barrier: cannot cross; also recorded: does not cross
[8]
  calcium signaling: rapidly normalizes
Mice and rats
  sensory abnormalities caused by carrageenan injection, ultraviolet B-radiation or CCI: corrects
formalin-injected mice [1]; post-injury intrathecal infusion, 30 ng, 5 μL, at PFD2 and PFD4, assessed PFD14
  persistent hypersensitivity (CPLS) elicited by formalin: stopped
[9]
  mechanical hypersensitivity: reduces

## NCC1(CC(=O)O)CCCCC1 [gabapentin]
formalin-injected mice [1]
  conversion to CPLS (contralateral hyperalgesia, PFD14): not mimicked; also recorded: failed to stop; also recorded: do not prevent; also recorded: fail to prevent
  alleviation of the hypersensitive state (contralateral hyperalgesia): only temporarily alleviated
